This note sets out measurements from US11730746B2, “17beta-heterocyclyl-digitalis like compounds for the treatment of heart failure” (priority 2018, dated 2023).

Where two headings read alike, the source gives them in different places. Marks after values point to notes of the source that are not given here.

One series has as its target T1, SERCA2a (Canis lupus familiaris, UniProt O46674).
T1 construct: pre-incubated with 2 μg of microsomes; from tissue; host or cells: dog heart left ventricle, SR microsomes
Kind of series: SERCA2a ATPase activity in heart-derived SR microsomes from normal dog. Format: biochemical. The settings on record: for Vmax (SERCA2a ATPase activity): mean ± SD. The protocol:
Left ventricle tissues were dissected, homogenized in 4 volumes of 10 mM NaHCO3, pH 7, 1 mM PMSF, 10 μg/ml Aprotinin and Leupeptin and centrifuged at 12,000 g for 15 minutes, as published (Nediani C. et al. J Biol Chem. 1996; 271:19066-73). Supernatants were filtered and centrifuged at 100,000 g for 30 min. Contractile proteins were extracted by suspending the pellets with 0.6 M KCl, 30 mM Histidine, pH 7 and further centrifugation at 100,000 g for 30 min. Final pellets were reconstituted with 0.3 M Sucrose, 30 mM Histidine, pH 7.
SERCA2a activity was measured “in vitro” as ^32P-ATP hydrolysis at different Ca^2+ concentrations (100-4000 nM) in the absence and presence of the tested compounds, as described (Micheletti R. et al. Am J Card 2007; 99:24A-32A). Increasing concentrations of each compound (from 1 to 100 nM) were pre-incubated with 2 μg of microsomes for 5 min at 4° C. in 80 μl of a solution containing 100 mM KCl, 5 mM MgCl2, 1 μM A23187, 20 mM Tris, pH 7.5. Then, 20 μl of 5 mM Tris-ATP containing 50 nCi of ^32P-ATP (3-10 Ci/mmol, Perkin Elmer) were added. The ATP hydrolysis was continued for 15 min at 37° C. and the reaction was stopped by acidification with 100 μl of 20% v/v ice-cold perchloric acid. ^32P was separated by centrifugation with activated charcoal (Norit A, SERVA) and the radioactivity was measured. SERCA2a-dependent activity was identified as the portion of total hydrolytic activity inhibited by 10 μM cyclopiazonic acid (Seidler N W. et al. J Biol Chem. 1989; 264:17816-23).
Dose-response curves were fitted by using a sigmoidal curve fitting software and the maximal velocity (Vmax) activity and the Kd Ca^2+ were calculated (Synergy Software KaleidaGraph 3.6).

In another series the target is T2, dog renal Na,K-ATPase (Canis lupus familiaris, UniProt P50997).
T2 construct: incubated with 0.3 μg of purified dog kidney enzyme; from tissue; host or cells: dog kidney outer medulla
As to the kind of experiment: Inhibition of dog renal Na,K-ATPase activity (32P-ATP release). The format is biochemical. The protocol: Kidneys were sliced and the outer medulla was dissected, pooled and suspended (1 g/10 ml) in a sucrose-histidine solution, containing 250 mM sucrose, 30 mM histidine and 5 mM EDTA, pH 7.2 and homogenized. […] The pellet was suspended in the sucrose-histidine buffer and incubated for 20 min with a sodium-dodecyl-sulphate (SDS) solution dissolved in a gradient buffer, containing 25 mM imidazole and 1 mM EDTA, pH 7.5. […] The pellet was suspended in the gradient buffer.
Increasing concentrations of the standard ouabain, or tested compound, were incubated with 0.3 μg of purified dog kidney enzyme for 10 min at 37° C. in 120 μl final volume of a medium, containing 140 mM NaCl, 3 mM MgCl2, 50 mM Hepes-Tris, 3 mM ATP, pH 7.5. […] The inhibitory activity was expressed as percent of the control samples carried out in the absence of ouabain or tested compound.

For series [1], the system named is guinea pig isolated cardiomyocytes. Kind of series: SR Ca2+ uptake function (loading protocol) in isolated ventricular cardiomyocytes. Format: cell-based. The settings on record: 100 nM. The method, then:
The compounds were characterized for their effect on (i) SR Ca^2+ uptake function, (ii) action potential (AP) in myocytes freshly dissociated from guinea-pig ventricles by retrograde coronary perfusion with enzymatic solution (Rocchetti M et al. J Pharmacol Exper Therap 2005; 313(1):207-215).
Drug effects on SR Ca^2+ uptake rate were evaluated with an SR “loading protocol” specifically devised to rule out the contribution of the Na/Ca exchanger (NCX) and to assess the uptake rate starting at low levels of SR Ca^2+ loading. Under voltage-clamp conditions, intracellular Ca^2+ concentration was dynamically measured by epifluorescence (Fluo4-AM). Membrane current, whose time-dependent component mainly reflected ICaL, was simultaneously recorded. The SR loading protocol consisted in emptying the SR (by a brief caffeine pulse) and then progressively refilling it by voltage steps activating Ca^2+ influx through the sarcolemmal Ca^2+ channel (ICaL). NCX was blocked by omission of Na^+ from intracellular and extracellular solutions. The procedure is in agreement with published methods, with minor modifications (Rocchetti M et al. J Pharmacol Exper Therap 2005; 313(1):207-215).
Drug effects on SR Ca^2+ uptake were analysed by considering multiple parameters: 1) the rate at which Ca^2+ transient (CaT) amplitude increased during the loading protocol, which reflects the rate at which the SR refilled and 2) the time constant of cytosolic Ca^2+ decay (Tdecay) within each pulse, reflecting net Ca^2+ transport rate (by SERCA2a) across the SR membrane (a decrease in Tdecay corresponds to enhanced SR Ca^2+ uptake).

Another series concerns guinea pig. Kind of series: Haemodynamics: inotropic and lethal dose in guinea pig. The conditions noted are these: i.v. infusion 0.3 mg/kg/min. Format: in vivo. The method, then: Guinea-pigs (400-450 g) were anaesthetized with urethane (1.5 g/kg ip). A microtip pressure transducer was introduced into the left ventricle through the right carotid artery to measure ventricular pressure (LVP); the transducer was coupled with a transducer amplifier. Recordings were fed to a polygraph and analyzed. A polythene cannula was inserted into a jugular vein for drug infusion. After a stabilization period, the test substance was injected at the rate of 0.16 ml/min for 90 min (Micheletti R et al. J Pharmacol Exp Ther 2002; 303:592-600).
The following parameters were obtained: heart rate (HR), left ventricular pressure (LVP), maximal velocity of pressure rise (+dP/dtmax) and decay (−dP/dtmax), ECG. For inotropy, the time elapsed until +dP/dtmax increased by 80% was identified in order to determine the ED80 (dose increasing basal +dP/dtmax by 80%). The time to the maximum increase in +dP/dtmax was also identified to determine the maximum effective dose, EDmax. Lusitropy was characterized by the dose inducing the maximum decrease in −dP/dtmax, (EDmax). As indexes of toxicity, the dose administered until the onset of arrhythmias and the dose inducing death (LD) were calculated. The safety ratio for the tested compound was also calculated as the ratio between LD and ED80.

The mark [2] stands for this setting: purified dog kidney enzyme, read-out: IC50, inhibition of dog renal Na,K-ATPase.

T1 sequence (O46674 whole entry): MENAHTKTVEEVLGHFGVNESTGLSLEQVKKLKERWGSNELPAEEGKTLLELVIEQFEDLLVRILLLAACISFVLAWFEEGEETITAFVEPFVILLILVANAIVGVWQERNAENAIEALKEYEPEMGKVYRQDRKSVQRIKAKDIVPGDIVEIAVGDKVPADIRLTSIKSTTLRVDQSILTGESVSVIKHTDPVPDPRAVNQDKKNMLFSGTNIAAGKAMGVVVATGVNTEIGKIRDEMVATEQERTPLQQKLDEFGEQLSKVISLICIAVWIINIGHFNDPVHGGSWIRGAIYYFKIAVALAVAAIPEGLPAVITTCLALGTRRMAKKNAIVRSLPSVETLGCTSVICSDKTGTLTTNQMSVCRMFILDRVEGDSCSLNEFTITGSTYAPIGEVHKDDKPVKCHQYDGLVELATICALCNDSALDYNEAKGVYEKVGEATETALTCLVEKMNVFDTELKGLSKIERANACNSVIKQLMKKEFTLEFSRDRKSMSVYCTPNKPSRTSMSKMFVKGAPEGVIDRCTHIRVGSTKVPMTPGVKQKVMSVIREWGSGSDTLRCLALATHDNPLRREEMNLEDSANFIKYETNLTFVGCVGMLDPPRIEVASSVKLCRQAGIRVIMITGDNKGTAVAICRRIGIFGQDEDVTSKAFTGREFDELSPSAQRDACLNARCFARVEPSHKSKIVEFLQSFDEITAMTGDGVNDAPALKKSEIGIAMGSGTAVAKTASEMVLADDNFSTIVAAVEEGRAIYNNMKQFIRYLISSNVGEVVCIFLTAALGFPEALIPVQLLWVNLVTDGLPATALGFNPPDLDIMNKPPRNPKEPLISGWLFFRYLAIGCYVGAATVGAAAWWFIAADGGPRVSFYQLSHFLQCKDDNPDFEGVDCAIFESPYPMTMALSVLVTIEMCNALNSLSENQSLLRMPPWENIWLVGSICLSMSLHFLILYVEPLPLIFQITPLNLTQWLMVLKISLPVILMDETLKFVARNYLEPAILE

`C[C@]12[C@H](O)CC3C(CC[C@@H]4C[C@@H](O)CC[C@]34C)[C@@]1(O)CC[C@@H]2c1c[nH]cn1` (stereo partly drawn) [CVie 104, 3β-hydroxy-5β-10β-methyl-12β-hydroxy-13β-methyl-14β-hydroxy-17β-(imidazol-4-yl)androstane]: the figures for the “% increase vs Control (SERCA2a Vmax)” value on SERCA2a (compound 1 nM) and on SERCA2a (compound 10 nM) were 11%* and 20%*, respectively. Further, the results for the “Vmax (SERCA2a ATPase activity)” value on SERCA2a (compound 1 nM) and at SERCA2a (compound 10 nM) were 1.437 ± 0.158 (n = 4) μmol/min/mg prot and 1.551 ± 0.275 (n = 4) μmol/min/mg prot, respectively. Moreover, the IC50 on dog renal Na,K-ATPase (setting [2]) was 1.61 µM.
As to `C[C@]12CC[C@H](O)C[C@H]1CCC1C2CC[C@]2(C)[C@@H](c3cc(CCCN)on3)CC[C@]12O` (stereo partly drawn) [CVie 107, 3β-hydroxy-5β-10β-methyl-13β-methyl-14β-hydroxy-17β-((5-(3-aminopropyl)-isoxazol-3-yl))androstane], the figures for the “% increase vs Control (SERCA2a Vmax)” value at SERCA2a (compound 10 nM) and on SERCA2a (compound 100 nM) were 7% and 17%*, respectively. Besides, the “Vmax (SERCA2a ATPase activity)” value on SERCA2a (compound 10 nM) is given as 2.508 ± 0.339 (n = 3) μmol/min/mg prot; on SERCA2a (compound 100 nM), 2.751 ± 0.171 (n = 3) μmol/min/mg prot. Moreover, the IC50 at dog renal Na,K-ATPase (setting [2]) came to 0.15 µM.
Turning to `C[C@]12CC[C@H](O)C[C@H]1CCC1C2CC[C@]2(C)[C@@H](CCc3cc(CCCN)on3)CC[C@]12O` (stereo partly drawn) [CVie 108, 3β-hydroxy-5β-10β-methyl-13β-methyl-14β-hydroxy-17β-((5-(3-aminopropyl)-isoxazol-3-yl)-ethyl)androstane], the “% increase vs Control (SERCA2a Vmax)” value on SERCA2a (compound 1 nM) came to 15%; at SERCA2a (compound 10 nM), 16%*. Besides, the “Vmax (SERCA2a ATPase activity)” value on SERCA2a (compound 1 nM) is on record as 2.94 ± 0.306 (n = 3) μmol/min/mg prot; at SERCA2a (compound 10 nM), 2.980 ± 0.441 (n = 4) μmol/min/mg prot. For the same compound, the 50% inhibitory concentration (IC50) on dog renal Na,K-ATPase (setting [2]) stood at 3.3 µM.
Regarding `C[C@]12CC[C@H](O)C[C@H]1CCC1C2CC[C@]2(C)[C@@H](c3csc(N=C(N)N)n3)CC[C@]12O` (stereo partly drawn) [CVie 102, 3β-hydroxy-5β-10β-methyl-13β-methyl-14β-hydroxy-17β-(2-guanidino-thiazol-4-yl)androstane], the “rate of Ca2+ transient (CaT) increment during SR reloading” value in series [1] (FIG. 1A, 1C) is recorded as “increased”. In series [1] (FIG. 1B, 1D), the “time constant of cytosolic Ca2+ decay within each pulse (τdecay)” value was “reduced”. Also, in the series on guinea pig, the Dead/treated number is on record as 11/11, the ED80 was found to be 3.8 mg/kg and the Lethal dose worked out at 12.57 mg/kg. Also, the “E max % increase in dP/dtmax” value with guinea pig (90 min) is on record as 138.3%. The same compound showed an ED max in the series with guinea pig (cumulative dose) of 8.6 mg/kg. Moreover, in the series on guinea pig (safety ratio), the LD/ED80 was determined as 5.42. Besides, on SERCA2a (compound 1 nM), the “% increase vs Control (SERCA2a Vmax)” value amounted to 25%* and the “Vmax (SERCA2a ATPase activity)” value was 2.949 ± 0.321 (n = 6) μmol/min/mg prot. Moreover, at SERCA2a (compound 10 nM), the “% increase vs Control (SERCA2a Vmax)” value is given as 13%* and the “Vmax (SERCA2a ATPase activity)” value is given as 2.660 ± 0.232 (n = 12) μmol/min/mg prot. The same compound showed a concentration for half-maximal inhibition (IC50) against dog renal Na,K-ATPase of 1.7 µM.
Turning to `C[C@]12CC[C@H](O)C[C@H]1CCC1C2CC[C@]2(C)[C@@H](c3cc[nH]n3)CC[C@]12O` (stereo partly drawn) [CVie 103, 3β-hydroxy-5β-10β-methyl-13β-methyl-14β-hydroxy-17β-(pyrazol-3-yl)androstane], the “% increase vs Control (SERCA2a Vmax)” value worked out at 11%* on SERCA2a (compound 10 nM) and 16%* on SERCA2a (compound 100 nM). Also, the entries for the “Vmax (SERCA2a ATPase activity)” value on SERCA2a (compound 10 nM) and on SERCA2a (compound 100 nM) were 2.569 ± 0.278 (n = 7) μmol/min/mg prot and 2.688 ± 0.285 (n = 7) μmol/min/mg prot, respectively. The compound also returned an IC50 against dog renal Na,K-ATPase of 4 µM.
On to `C[C@]12CC[C@H](O)C[C@H]1CC[C@@H]1[C@@H]2C[C@@H](O)[C@]2(C)[C@@H](C3=CC(=O)OC3)CC[C@]12O` [DIGOXIGENIN, Digoxigenin, reference compound], for which, on dog renal Na,K-ATPase, half-maximal inhibition (IC50) required 0.23 µM.
In the case of `C[C@]12CC[C@H](O)C[C@H]1CCC1C2CC[C@]2(C)[C@@H](c3cn(CCCN)cn3)CC[C@]12O` (stereo partly drawn) [CVie 106, 3β-hydroxy-5β-10β-methyl-13β-methyl-14β-hydroxy-17β-(N-(3-aminopropyl)-imidazol-4-yl)androstane], at SERCA2a (compound 1 nM), the “% increase vs Control (SERCA2a Vmax)” value turned out to be 22% * and the “Vmax (SERCA2a ATPase activity)” value was 3.113 ± 0.157 (n = 3) μmol/min/mg prot. On SERCA2a (compound 10 nM), the “% increase vs Control (SERCA2a Vmax)” value was 15% and the “Vmax (SERCA2a ATPase activity)” value is 2.935 ± 0.403 (n = 3) μmol/min/mg prot. Also, the IC50 at dog renal Na,K-ATPase (setting [2]) worked out at 10 µM.
Consider `C[C@]12CC[C@H](O)C[C@H]1CCC1C2CC[C@]2(C)[C@@H](CCc3cc(CCN)on3)CC[C@]12O` (some centres unmarked) [CVie 109], for which the “% increase vs Control (SERCA2a Vmax)” value at SERCA2a (compound 10 nM) worked out at 14%; at SERCA2a (compound 100 nM) it was 15%*. Moreover, the “Vmax (SERCA2a ATPase activity)” value is reported as 2.859 ± 0.504 (n = 4) μmol/min/mg prot at SERCA2a (compound 10 nM) and 2.889 ± 0.305 (n = 4) μmol/min/mg prot at SERCA2a (compound 100 nM). Besides, on dog renal Na,K-ATPase (setting [2]), the IC50 came to 1 µM.
For the compound `C[C@]12CC[C@H](O)C[C@H]1CCC1C2CC[C@]2(C)[C@@H](/C=C/c3cc(CN)on3)CC[C@]12O` (some centres unmarked) [CVie 110], the “% increase vs Control (SERCA2a Vmax)” value at SERCA2a (compound 1 nM) was determined as 19%; on SERCA2a (compound 10 nM) it was 18%*. For the same compound, the “Vmax (SERCA2a ATPase activity)” value at SERCA2a (compound 1 nM) is 2.924 ± 0.549 (n = 3) μmol/min/mg prot; at SERCA2a (compound 10 nM), 2.903 ± 0.188 (n = 3) μmol/min/mg prot. On dog renal Na,K-ATPase, 0.33 µM corresponded to half-maximal inhibition (IC50).
For the compound `C[C@]12[C@H](O)CC3C(CC[C@@H]4C[C@@H](O)CC[C@]34C)[C@@]1(O)CC[C@@H]2c1csc(N=C(N)N)n1` (stereo partly drawn) [CVie 105, 3β-hydroxy-5β-10β-methyl-12β-hydroxy-13β-methyl-14β-hydroxy-17β-(2-guanidino-thiazol-4-yl)androstane], the IC50 at dog renal Na,K-ATPase came out at 0.53 µM.

For orientation: IC50 means the concentration that gives 50% inhibition.
